Where “and” joins values, the source holds several entries; their conditions need not be identical. Equal values may be shown once. Read-outs that look alike come from different tables or passages of the source.
Legend:
wild type EGFR TKD = molecular target: T1, wild type EGFR TKD (Homo sapiens, UniProt P00533); experiment: Michaelis-Menten kinetics (KM,ATP, KM,pept); type: biochemical
T1 construct: hexa-histidine (6x His) (N); made in house; host or cells: Spodoptera frugiperda Sf9 (baculovirus, pFastBac1)

EGFR TKD ΔL747-A750InsP = molecular target: T2, EGFR TKD ΔL747-A750InsP (Homo sapiens, UniProt P00533, A750P/DEL747-749); experiment: Michaelis-Menten kinetics (KM,ATP, KM,pept); type: biochemical
T2 construct: 6x His (N); made in house; host or cells: Spodoptera frugiperda Sf9 (baculovirus)

EGFR TKD L747P = molecular target: T3, EGFR TKD L747P (Homo sapiens, UniProt P00533, L747P); experiment: Michaelis-Menten kinetics (KM,ATP, KM,pept); type: biochemical
T3 construct: 6x His (N); made in house; host or cells: Spodoptera frugiperda Sf9 (baculovirus)

EGFR TKD ΔE746-A750 = molecular target: T4, EGFR TKD ΔE746-A750 (Homo sapiens, UniProt P00533, DEL746-750); experiment: Michaelis-Menten kinetics (KM,ATP, KM,pept); type: biochemical; conditions: read-out: Best fit KM,ATP; individual experiments (Fig. 3b data)
T4 construct: 6x His (N); made in house; host or cells: Spodoptera frugiperda Sf9 (baculovirus)
Description: (§1) Reactions were carried out in a 384-well assay plate format at 30 °C and initiated with the addition of AQpeptide after 5 min incubation of EGFR with ATP. Progress curves of phosphorylated peptide accumulation were monitored using a BioTek Synergy microplate reader with a fluorescence intensity module excitation and emission wavelength at 360 nm and 480 nm, respectively.
(§2) Initial velocities (νo) at different ATP concentrations were determined by inspecting progress curves during the steady state phase. The νo values were plotted against ATP concentration, and the curves fit to the Michaelis-Menten equation to estimate KM, ATP as well as Vmax using GraphPad Prism.

EGFR TKD ΔE746-T751InsA = molecular target: T5, EGFR TKD ΔE746-T751InsA (Homo sapiens, UniProt P00533, DEL746-750/T751A); experiment: Michaelis-Menten kinetics (KM,ATP, KM,pept); type: biochemical
T5 construct: 6x His (N); made in house; host or cells: Spodoptera frugiperda Sf9 (baculovirus)
Description: as §1, §2

EGFR TKD ΔL747-T751InsP = molecular target: T6, EGFR TKD ΔL747-T751InsP (Homo sapiens, UniProt P00533, DEL747-750/T751P); experiment: Michaelis-Menten kinetics (KM,ATP, KM,pept); type: biochemical; conditions: read-out: Best fit KM,ATP; individual experiments (Fig. 3b data)
T6 construct: 6x His (N); made in house; host or cells: Spodoptera frugiperda Sf9 (baculovirus)
Description: as §1, §2

EGFR TKD ΔL747-P753InsS = molecular target: T7, EGFR TKD ΔL747-P753InsS (Homo sapiens, UniProt P00533, DEL747-752/P753S); experiment: Michaelis-Menten kinetics (KM,ATP, KM,pept); type: biochemical
T7 construct: 6x His (N); made in house; host or cells: Spodoptera frugiperda Sf9 (baculovirus)

EGFR TKD ΔS752-I759 = molecular target: T8, EGFR TKD ΔS752-I759 (Homo sapiens, UniProt P00533, DEL752-759); experiment: Michaelis-Menten kinetics (KM,ATP, KM,pept); type: biochemical
T8 construct: 6x His (N); made in house; host or cells: Spodoptera frugiperda Sf9 (baculovirus)

EGFR TKD L858R = molecular target: T9, EGFR TKD L858R (Homo sapiens, UniProt P00533, L858R); experiment: Michaelis-Menten kinetics (KM,ATP, KM,pept); type: biochemical
T9 construct: 6x His (N); made in house; host or cells: Spodoptera frugiperda Sf9 (baculovirus)

EGFR TKD L858R/T790M = molecular target: T10, EGFR TKD L858R/T790M (Homo sapiens, UniProt P00533, L858R/T790M); experiment: Michaelis-Menten kinetics (KM,ATP, KM,pept); type: biochemical; conditions: read-out: Best fit KM,ATP; individual experiments (Fig. 3b data)
T10 construct: 6x His (N); made in house; host or cells: Spodoptera frugiperda Sf9 (baculovirus)
Description: as §1, §2

EGFR TKD ΔL747-E749 = EGFR TKD ΔL747-E749 (Homo sapiens, UniProt P00533, DEL747-749); experiment: Michaelis-Menten kinetics (KM,ATP)
Description: as §1, §2

[1] = read-out: Best fit KM,ATP, individual experiments (Fig. 3b data)
[2] = read-out: KM, ATP, 20 μM peptide, mean ± SD

Km (wild type EGFR TKD; [1]): 9.32 µM and 7.22 µM and 7.98 µM and 15.8 µM and 15.6 µM and 15 µM and 12.6 µM and 10.1 µM | Km (wild type EGFR TKD; [2]): 12 ± 3 µM | Km (EGFR TKD ΔL747-A750InsP; [1]): 23.6 µM and 15.4 µM and 18.7 µM and 31.1 µM and 32.5 µM and 29.2 µM and 22.7 µM and 20.1 µM and 16.8 µM | Km (EGFR TKD ΔL747-A750InsP; [2]): 23 ± 6 µM | KM, ATP for L747P smaller than for ΔE746-A750 (EGFR TKD L747P): 7.5 fold | Km (EGFR TKD L747P; [1]): 16.8 µM and 14.6 µM and 12.5 µM and 19.3 µM and 21.2 µM and 21.7 µM and 28.8 µM and 29.4 µM and 26 µM | Km (EGFR TKD L747P; [2]): 21 ± 6 µM | Km (EGFR TKD ΔE746-A750): 194 µM and 149 µM and 116 µM and 126 µM | Km (EGFR TKD ΔE746-T751InsA; [1]): 216 µM and 285 µM and 228 µM and 263 µM and 287 µM and 318 µM | Km (EGFR TKD ΔE746-T751InsA; [2]): 240 ± 59 µM | Km (EGFR TKD ΔL747-T751InsP): 93.5 µM and 183 µM and 100 µM and 217 µM and 135 µM and 204 µM and 224 µM | Km (EGFR TKD ΔL747-P753InsS; [1]): 115 µM and 93.7 µM and 90.2 µM and 86 µM and 70.3 µM and 87.6 µM and 138 µM and 132 µM and 99.9 µM | Km (EGFR TKD ΔL747-P753InsS; [2]): 101 ± 22 µM | Km (EGFR TKD ΔS752-I759; [2]): 91 ± 25 µM | Km (EGFR TKD L858R; [1]): 89.3 µM and 87.4 µM and 87.6 µM and 63.1 µM and 77.3 µM and 74.5 µM and 60.1 µM and 51.1 µM | Km (EGFR TKD L858R; [2]): 74 ± 14 µM | Km (EGFR TKD L858R/T790M): 48 µM and 47.5 µM and 38.9 µM and 35.3 µM and 47.4 µM and 56.3 µM and 50.7 µM | Km (EGFR TKD ΔL747-E749; [1]): 10.3 µM and 8.84 µM and 8.25 µM and 18.4 µM and 22.3 µM and 26.3 µM and 7.28 µM and 5.87 µM and 5.78 µM | Km (EGFR TKD ΔL747-E749; [2]): 13 ± 8 µM
SMILES: Nc1ncnc2c1ncn2[C@@H]1O[C@H](COP(=O)(O)OP(=O)(O)OP(=O)(O)O)[C@@H](O)[C@H]1O [ATP]
Km (EGFR TKD ΔS752-I759; [1]): 124 µM (2×) and 122 µM and 82.8 µM (2×) and 79.2 µM and 65.9 µM and 75.6 µM and 64.3 µM

Reference: publication PMC9649653, “Biochemical and structural basis for differential inhibitor sensitivity of EGFR with distinct exon 19 mutations” (Nature Communications, 2022)
